Experimental data: patent US9322049B2, “Activation and activators of SirT6” (CORNELL UNIVERSITY, priority 2009, dated 2016)

How the values were obtained:
Format in all cases: biochemical
SirT6 = molecular target: T1, SirT6 (Homo sapiens, UniProt Q8N6T7); assay: Determination of Kd of DNA for SirT6 activation by HPLC (Example 2); details: 800 μM NAD, 480 μM H3, 10 μM SirT6, 2 hours 37° C.; fit Activation (fold)=1+m*x/(Kd+x)
T1 construct: The protein expression and purification were the same as the full length SIRT6 as described above; made in house; host or cells: E. coli BL21 Codon-plus RIPL
T1 sequence (Q8N6T7 whole entry): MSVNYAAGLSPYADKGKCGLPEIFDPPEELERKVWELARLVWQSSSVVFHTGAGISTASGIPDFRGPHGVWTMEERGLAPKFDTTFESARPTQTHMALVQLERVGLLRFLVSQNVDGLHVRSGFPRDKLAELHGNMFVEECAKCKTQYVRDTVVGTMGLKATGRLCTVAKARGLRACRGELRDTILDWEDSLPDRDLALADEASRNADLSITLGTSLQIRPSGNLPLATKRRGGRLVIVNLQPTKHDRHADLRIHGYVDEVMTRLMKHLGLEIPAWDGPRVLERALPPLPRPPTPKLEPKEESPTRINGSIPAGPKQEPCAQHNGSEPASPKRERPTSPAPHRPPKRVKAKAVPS
Method: FIG. 5A depicts a schematic of DNA structure. […] After 2 hours incubation at 37° C., either the deacetylated H3 was separated from H3 in the reaction containing the digested calf thymus DNA or AADPR was separated from other components in the reaction containing ssDNA, the plasmid, or dsDNA.
The plasmid pSTBlue was digested with BamHI and EcoRV and purified by […]™ III kit. […] The AADPR was separated by HPLC and the quantified data were fit into Michaelis-Menten equation to get Km of H3.
In the enzymatic reaction, the following DNA was used.
Calf thymus DNA (USB Corporation), which was digested with EcoRI and then purified using Spinprep Gel DNA Kit (Novagen);
ssDNA (5′ […] 3′ (SEQ ID NO: 9), Integrated DNA Technologies);
dsDNA (forward 5′ […] 3′ (SEQ ID NO: 10), reverse 5′ […] 3′ (SEQ ID NO: 11), Integrated DNA Technologies); and
pSTBlue plasmid, which was amplified using DH5α cells and purified by WIZARD™ PLUS (Midiprep) DNA purification system (Promega).
The precipitated proteins and other insolubles were removed by centrifugation at 15,000 rpm for 5 minutes. DNA in the supernatant was further removed by centrifugation at 15,000 rpm for 10 minutes using Microcon with 10 kDa cutoff (Millipore). In the experiment with the digested calf thymus DNA, the peptides were separated by a Waters Xterra RP-18 column using a gradient of 0-30% acetonitrile in 0.1% trifluoroacetic acid. […]

[1] = molecular target: T2, truncated SirT6 (deletion of N terminal 17 amino acids) (Homo sapiens, UniProt Q8N6T7); assay: Deacetylation rate of truncated SirT6 with suramin or single stranded DNA; details: 50 μM suramin or 100 ng/μl single stranded DNA; 800 μM NAD, 480 μM H3, 10 μM enzyme
T2 construct: The truncated SIRT6 was cloned similarly with the full length SIRT6; poly-histidine (pET28a) (N); made in house; host or cells: E. coli BL21 Codon-plus RIPL
T2 sequence (Q8N6T7 with tags, fused parts or gaps): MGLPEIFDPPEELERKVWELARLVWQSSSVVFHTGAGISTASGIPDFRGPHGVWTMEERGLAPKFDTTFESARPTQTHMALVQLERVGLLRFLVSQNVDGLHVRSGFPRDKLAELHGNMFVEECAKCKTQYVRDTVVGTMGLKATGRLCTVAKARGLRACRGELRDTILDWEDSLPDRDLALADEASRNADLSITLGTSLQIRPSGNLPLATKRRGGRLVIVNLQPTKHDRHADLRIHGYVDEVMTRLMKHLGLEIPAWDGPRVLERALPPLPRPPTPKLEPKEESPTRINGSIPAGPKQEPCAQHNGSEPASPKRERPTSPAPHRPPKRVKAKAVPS
Description: The deacetylation rate of different truncated SirT6 was normalized to the rate of full length SirT6 for the comparison.
The truncated SIRT6 was cloned similarly with the full length SIRT6. The primers used in the cloning of different truncated SIRT6 are the following: SIRT6Δ2-7 Forward 5′ GCTAGC ATGGGGCTGTCGCCGTACGCG 3′ (SEQ ID NO: 4); SIRT6Δ2-12 Forward 5′ GCTAGC ATG […] 3′ (SEQ ID NO: 5); SIRT6Δ2-18 Forward 5′ GCTAGC ATGGGCCTCCCGGAGATCTTCGAC 3′ (SEQ ID NO: 6); SIRT6Δ2-51 Forward 5′ 5′ GCTAGC ATGACGGGTGCCGGCATCAGCACT 3′ (SEQ ID NO: 7). The common reverse primer is 5′[…] 3′ (SEQ ID NO: 8). The truncated SIRT6 was amplified by PCR reaction. The PCR product was then ligated into pSTblue-1 (Novagen). After digestion with NheI and BamHI, the fragment containing SIRT6 gene was ligated into pET28a vector (Novagen). The SIRT6 truncated sequence in pET28a plasmid was confirmed by DNA sequencing, and the plasmid was then transformed into BL21Codon-plus RIPL cells (Stratagene). The protein expression and purification were the same as the full length SIRT6 as described above.

SirT1 = molecular target: T3, SirT1 (Homo sapiens, UniProt Q96EB6); assay: SirT1 deacetylation, Km of H3 with and without ssDNA; details: 100 ng/μl ssDNA
T3 sequence (Q96EB6 1-747): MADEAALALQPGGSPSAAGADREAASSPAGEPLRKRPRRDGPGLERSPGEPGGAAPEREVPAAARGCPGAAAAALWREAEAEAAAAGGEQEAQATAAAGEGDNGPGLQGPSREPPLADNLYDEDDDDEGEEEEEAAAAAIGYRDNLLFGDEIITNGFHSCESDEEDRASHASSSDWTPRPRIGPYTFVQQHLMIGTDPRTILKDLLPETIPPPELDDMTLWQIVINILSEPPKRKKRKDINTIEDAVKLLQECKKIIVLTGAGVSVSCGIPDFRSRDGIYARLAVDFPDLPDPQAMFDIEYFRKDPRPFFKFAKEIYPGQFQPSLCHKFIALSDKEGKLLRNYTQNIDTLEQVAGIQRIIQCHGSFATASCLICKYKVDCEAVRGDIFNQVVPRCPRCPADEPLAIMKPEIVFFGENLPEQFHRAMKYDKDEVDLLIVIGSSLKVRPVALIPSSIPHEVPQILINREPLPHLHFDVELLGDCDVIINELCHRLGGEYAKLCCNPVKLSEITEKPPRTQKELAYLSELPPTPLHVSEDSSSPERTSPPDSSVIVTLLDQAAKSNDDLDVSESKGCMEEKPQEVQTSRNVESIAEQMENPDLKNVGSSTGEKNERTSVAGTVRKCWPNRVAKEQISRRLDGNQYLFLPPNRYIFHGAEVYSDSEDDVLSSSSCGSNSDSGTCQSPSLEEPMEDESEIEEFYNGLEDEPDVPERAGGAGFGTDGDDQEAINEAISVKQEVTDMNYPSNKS
Description: The quantified data were fit into Michaelis-Menten equation to get Km of H3.

ssDNA: ssDNA 5′ GGGGATCCATGAAGATGAGCTTTGCGTTGACT 3′ (SEQ ID NO: 9), Integrated DNA Technologies (DNA, backbone and methylation of C not given here)
Kd of DNA for activation of SirT6 (SirT6): 127.7 µg/mL | Activation of truncated SirT6 deacetylation [1]: lost of activation | Deacetylation activity of SirT1 (SirT1): not activated
